ChEMBL document CHEMBL1158296, “(Hydroxymethyl)acylfulvene: an illudin derivative with superior antitumor properties” (J Nat Prod, 1996)
Calls of active or inactive are those of the source. The calls are words filed in the database; no cut-off is given here.

What was measured:
HL-60 = experiment: Cytotoxicity against human HL60 cells after 48 hrs by trypan blue exclusion method; format: functional, cell-based
MV522 = experiment: Antitumor activity against human MV522 cells xenografted BALB/c nu/nu mouse assessed as induction of tumor regression at 10 mg/kg, iv administered three times per week for 3 weeks; format: functional, organism-based; parameters: dose 10 mg/kg
[1] = Antitumor activity against human MV522 cells xenografted BALB/c nu/nu mouse assessed as increase in life span at 10 mg/kg, iv administered three times per week for 3 weeks; format: functional
[2] = Homo sapiens, HL-60, 48 h, read-out: IC50

SMILES	IC50 (HL-60; [2]) [nM]	also measured
COc1ccc(CC2=C(C)C=C3C(=O)[C@](C)(O)C4(CC4)C(C)=C32)cc1	1050	–
CC1=C(CSc2ccc(C)cc2)C2=C(C)C3(CC3)[C@@](C)(O)C(=O)C2=C1	–	IC50 (HL-60; hl-60): ND(Insoluble)
CC1=C(Cc2ccc(O)cc2)C2=C(C)C3(CC3)[C@@](C)(O)C(=O)C2=C1	380	–
CC1=CC2=C(C)C3(CC3)[C@@](C)(O)C(=O)C2=C1 [ACYLFULVENE]	415	–
CC1=C2C(=O)C(C)(C)C=C2C(=O)[C@](C)(O)C12CC2 [DEHYDROILLUDIN M]	296	–
CC1=C(CO)C2=C(C)C3(CC3)[C@@](C)(O)C(=O)C2=C1 [IROFULVEN]	73	Activity (MV522): Active; Activity [1]: 150%
